Paper PMC7893776, “Selecting an anti-malarial clinical candidate from two potent dihydroisoquinolones” (Malaria Journal, 2021)
“And” between values parts separate entries of the source, which are not always exact repeats. Equal values may be shown once. Read-outs that look alike come from different tables or passages of the source.

Experiments:
CYP2C9 = biological target: T1, CYP2C9 (Homo sapiens, UniProt P11712); experiment: CYP450 inhibition, CYP2C9; format: in vitro ADME; conditions: for inhibition of CYP2C9: 10 µM, probe substrate Diclofenac, replicate measurements
T1 construct: purchased Cypex Ltd (Bactosomes)
T1 sequence (P11712 whole entry): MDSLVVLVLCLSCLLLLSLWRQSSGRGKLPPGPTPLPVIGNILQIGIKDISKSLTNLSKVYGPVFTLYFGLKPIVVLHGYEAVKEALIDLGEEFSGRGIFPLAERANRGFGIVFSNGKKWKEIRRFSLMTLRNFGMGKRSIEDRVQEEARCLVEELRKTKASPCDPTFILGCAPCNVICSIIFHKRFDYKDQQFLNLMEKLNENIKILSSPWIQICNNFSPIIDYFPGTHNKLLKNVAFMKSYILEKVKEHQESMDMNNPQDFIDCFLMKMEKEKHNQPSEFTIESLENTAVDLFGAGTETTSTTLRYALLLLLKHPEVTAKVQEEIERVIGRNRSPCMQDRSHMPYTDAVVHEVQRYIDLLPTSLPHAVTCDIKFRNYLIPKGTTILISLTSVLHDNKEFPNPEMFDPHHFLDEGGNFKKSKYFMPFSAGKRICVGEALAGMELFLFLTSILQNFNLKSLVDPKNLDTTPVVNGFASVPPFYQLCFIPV
Experimental: SJ733 was first pre-incubated with Bactosomes™ (Cypex Ltd, final P450 concentration: CYP1A1 25 pmol/mL, CYP1A2 100 pmol/mL,CYP1B1 100 pmol/mL, CYP2B6 100 pmol/mL, CYP2C8 50 pmol/mL, CYP2C9, 25 pmol/mL, CYP2C19 100 pmol/mL, CYP2D6 50 pmol/mL and CYP3A4 25 pmol/mL, 0.1 M phosphate buffer pH 7.4) at 37 °C prior to the addition of NADPH (final concentration 1 mM) to initiate the reaction with a final incubation volume of 50 μL. Incubations were also performed using control Bactosomes™ (no P450 enzymes present) to reveal any non-enzymatic degradation. Control compounds known to be metabolized specifically by each P450 isoform were included individually. Test articles and controls were incubated with each isoform for 0, 5, 15, 30, and 45 min. The reactions were stopped by transferring 20 μL of the reaction mixture to 60 μL methanol at the appropriate timepoints.
In an alternate approach SJ311 was studied using a validated cocktail probe substrate method. […] All samples were analyzed using LC MS/MS, with either positive atmospheric pressure chemical ionization (APCI) mode (SJ311) or ESI (SJ733) mode utilizing multiple reaction monitoring (MRM) scans.

[1] = LogD octanol/pH 7.4 buffer shake flask; format: physicochemical
Experimental: Octanol/pH 7.4 buffer partitioning experiments were conducted using a shake flask method, and pKa was assessed by potentiometric titration. Both methods have been described previously.

[2] = Dog pharmacokinetics, single PO or IV dose; format: in vivo, male beagle dogs; conditions: for bioavailability: read-out: Dog F (oral bioavailability)
Text: Studies were undertaken to determine the plasma pharmacokinetics of SJ733 and SJ311. These studies included: (i) single oral gavage (PO) or intravenous (IV) dose administration to female C57BL/6 mice; (ii) single PO or IV dose administration to male Sprague Dawley (SD) rats; (iii) single PO or IV dose administration to male beagle dogs; (iv) toxicokinetic (TK) study following single PO administration to male SD rats. The PO and IV formulation used for mouse studies at SJCRH was 1% hydroxypropyl-beta-cyclodextrin (w/v), 10% ethanol (v/v), 10% propylene glycol (v/v), 40% PEG-400 (v/v) and 39% PBS (pH 7.4) isotonic (v/v). Compounds were dosed orally as suspensions, and intravenously as filtered solutions. Compound concentrations were confirmed post filtration using UV spectroscopy. The IV formulation used for rat studies (Monash University) was the same as that used for mice. For PO dosing to rats (Monash University) at 2 mg/kg, a suspension formulation was used containing 0.5% (w/v) hydroxypropyl methylcellulose, 0.5% (v/v) benzyl alcohol and 0.4% (v/v) Tween 80. The formulation used for rat studies at SRI (PO, high dose) was the same as that used in mouse PK studies. The formulation for the high dose TK study at SRI was 0.5% methylcellulose in sterile water. The formulation used for dog studies was the same as that used in mouse PK studies. The plasma PK of SJ733 and SJ311 following a single PO gavage or IV dose (via saphenous vein) to male beagle dogs was determined at an IV dose of 3 mg/kg and PO doses of 3 and 30 mg/kg (n = 3 for each). Briefly, this PK study was carried out in three sessions with one week washout period in between to allow for complete clearance of compounds. In the first session, 6 male dogs were administered a single 3 mg/kg IV dose of SJ311 or SJ733. In the subsequent second and third sessions, the same 6 male dogs were given a single 3 mg/kg or 30 mg/kg PO dose of SJ311 or SJ733, respectively. Plasma (0 -72 h) and urine (0–48 h) samples were collected for further analysis of SJ311 or SJ733 concentrations. Dog plasma was extracted utilizing protein precipitation with a twofold volume ratio of acetonitrile, while urine samples were extracted utilizing liquid–liquid extraction with ethyl acetate. SJ733, SJ311, and verapamil (IS) were quantitated by LC–MS/MS as described above. Plasma concentration time (Ct) data for SJ733 and SJ311 were grouped by nominal time point, and the mean Ct values were subjected to noncompartmental analysis (NCA) using Phoenix WinNonlin 8.1 (Certara USA, Inc., Princeton, NJ). For all experiments, the area under the Ct and first moment curves (AUC, AUMC) were estimated using the “linear up log down” method. The terminal phase was defined as at least three time points at the end of the Ct profile, and the elimination rate constant (Kel) was estimated using an unweighted log-linear regression of the terminal phase. The terminal elimination half-life (T1/2) was estimated as 0.693/Kel, and the AUC from time 0 to infinity ([…]) was estimated as the AUC to the last time point (AUClast) + Clast (predicted)/Kel with the […] similarly calculated. Additional parameters estimated included observed maximum concentration (Cmax), time of Cmax (Tmax), concentration at the last observed time point (Clast), time of Clast (Tlast), and the apparent oral terminal volume of distribution (V/F). The apparent oral clearance (CL/F), systemic clearance (CL) and volume of distribution at steady state (Vss) were all estimated using standard formulae [19].

[3] = male, beagle, plasma, po, dosed orally, read-out: Tmax
[4] = male, beagle, plasma, po, summary over the oral doses studied

| Tmax [2, 3] [h] | bioavailability [2, 4] [%] | CYP2C9 inhibition, in words (CYP2C9) | AUCinf ([2]; single IV 3 mg/kg) [µM·h] | CL ([2]; single IV 3 mg/kg) [mL/min/kg] | Dose in urine ([2]; single IV 3 mg/kg) [%] | Half life ([2]; single IV 3 mg/kg) [h] | Vss ([2]; single IV 3 mg/kg) [L/kg] | AUCinf ([2]; single PO 3 mg/kg) [µM·h] | CL ([2]; single PO 3 mg/kg) [mL/min/kg] | Cmax ([2]; single PO 3 mg/kg) [µM] | Dose in urine ([2]; single PO 3 mg/kg) [%] | F% ([2]; single PO 3 mg/kg) [%] | Half life ([2]; single PO 3 mg/kg) [h] | Tmax ([2]; single PO 3 mg/kg) [h] | V ([2]; single PO 3 mg/kg) [L/kg] | AUCinf ([2]; single PO 30 mg/kg) [µM·h] | CL ([2]; single PO 30 mg/kg) [mL/min/kg] | SMILES | inhibition of CYP2C9 (CYP2C9) | LogD (7.4) Shake flask [1] | other results |
| --- | --- | --- | --- | --- | --- | --- | --- | --- | --- | --- | --- | --- | --- | --- | --- | --- | --- | --- | --- | --- | --- |
| – | – | – | – | – | – | – | – | – | – | – | – | – | – | – | – | – | – | N#Cc1cc(NC(=O)C2c3ccccc3C(=O)N(CC(F)(F)F)C2c2cn[nH]c2)ccc1F (racemic) [(r)-SJ311] | 19% and 15% | 2.34 | – |
| – | – | – | – | – | – | – | – | – | – | – | – | – | – | – | – | – | – | N#Cc1cc(NC(=O)C2c3ccccc3C(=O)N(CC(F)(F)F)C2c2cccnc2)ccc1F (racemic) [(r)-SJ733] | 34% and 17% | – | – |
| 1 | 60 to 100 | weak inhibitors | – | – | – | – | – | – | – | – | – | – | – | – | – | – | – | N#Cc1cc(NC(=O)[C@H]2c3ccccc3C(=O)N(CC(F)(F)F)[C@@H]2c2cccnc2)ccc1F (racemic) [SJ733] | – | – | Dog F (oral bioavailability) ([2]; summary over the oral doses studied): 74-115% |
| – | – | – | 77.0 ± 12.4 | 1.42 ± 0.217 | 32.3 ± 21.3 | 7.8 ± 2.2 | 0.96 ± 0.27 | 56.2 ± 12.1 | 2.02 ± 0.5 | 4 ± 0.8 | 34.7 ± 15.9 | 73.0 ± 15.8 | 6.1 ± 0.6 | 3.3 ± 1.2 | 1.1 ± 0.4 | 601 ± 137 | 1.88 ± 0.417 | N#Cc1cc(NC(=O)[C@H]2c3ccccc3C(=O)N(CC(F)(F)F)[C@@H]2c2cn[nH]c2)ccc1F [(+)-SJ311] | – | 2.30 | Cmax ([2]; single PO 30 mg/kg): 35 ± 5.1 µM; Dose in urine ([2]; single PO 30 mg/kg): 33.4%; F% ([2]; single PO 30 mg/kg): 77.9 ± 17.7%; Half life ([2]; single PO 30 mg/kg): 6.7 ± 1.4 h; Tmax ([2]; single PO 30 mg/kg): 3.0 ± 1.7 h; V ([2]; single PO 30 mg/kg): 1.1 ± 0.4 L/kg |
| – | – | – | 33.1 ± 10.0 | 3.4 ± 0.9 | 1.9 ± 0.3 | 9.6 ± 4.7 | 2.8 ± 1.8 | 40.6 ± 12.9 | 2.82 ± 0.917 | 3 ± 0.7 | 2.8 ± 0.2 | 115 ± 29 | 11.4 ± 5.0 | 0.83 | 2.6 ± 0.8 | 243 ± 52.9 | 4.57 ± 1.12 | N#Cc1cc(NC(=O)[C@H]2c3ccccc3C(=O)N(CC(F)(F)F)[C@@H]2c2cccnc2)ccc1F [(+)-SJ733] | – | – | Cmax ([2]; single PO 30 mg/kg): 25.6 ± 2.1 µM; Dose in urine ([2]; single PO 30 mg/kg): 3.1 ± 1.9%; F% ([2]; single PO 30 mg/kg): 73.7 ± 16.1%; Half life ([2]; single PO 30 mg/kg): 5.3 ± 0.7 h; Tmax ([2]; single PO 30 mg/kg): 1.67 h; V ([2]; single PO 30 mg/kg): 2.1 ± 0.8 L/kg |
| 3 | 74 to 78 | weak inhibitors | – | – | – | – | – | – | – | – | – | – | – | – | – | – | – | N#Cc1cc(NC(=O)[C@H]2c3ccccc3C(=O)N(CC(F)(F)F)[C@@H]2c2cn[nH]c2)ccc1F [SJ311] | – | – | % dose recovered in dog urine ([2]; regardless of route, mean): 32-34%; logD ([1]; pH 7.4): 2.3 |
